According to the supplement of paper PMC10307832:

Columns and labels:
Assay in all cases: relative viability (nuclei count vs DMSO), 5 days (fraction); higher = more cells survive
[1] = compound: N=C1NC(=O)/C(=C/c2ccc(O)cc2)S1 [Mirin] + CS(=O)(=O)CCNCc1ccc(-c2ccc3ncnc(Nc4ccc(OCc5cccc(F)c5)c(Cl)c4)c3c2)o1 [Lapatinib] (partner 2 µM)
How it was run: (§1)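 A single step with final 0.05% Triton X-100, 1% formaldehyde and 1 ug/ml Hoechst fixed the cells and stained nuclei 5 days after treatment. Lung cancer cell lines in 1536-well plates had been treated by pin tool the day after seeding with one drug alone or a fixed anchor-drug dose plus five library-drug doses (not always all listed) in √10 steps, and nuclei were counted on 4× images. Relative viability is the ratio of nuclei in treated wells to nuclei in vehicle wells, taken as the median of duplicate plates.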

[2] = compound: CCn1c(-c2nonc2N)nc2cnc(Oc3cccc(NC(=O)c4ccc(OCCN5CCOCC5)cc4)c3)cc21 + CC(C)C[C@H](NC(=O)[C@H](Cc1ccccc1)NC(=O)c1cnccn1)B(O)O [Bortezomib] (partner 0.002 µM)
How it was run: as §1

[3] = compound: N=C1NC(=O)/C(=C/c2ccc(O)cc2)S1 [Mirin] + C[C@@H](Oc1cc(-c2cnn(C3CCNCC3)c2)cnc1N)c1c(Cl)ccc(F)c1Cl [Crizotinib] (partner 1 µM)
How it was run: as §1

[4] = compound: N=C1NC(=O)/C(=C/c2ccc(O)cc2)S1 [Mirin] + COc1cc2c(Oc3ccc(NC(=O)C4(C(=O)Nc5ccc(F)cc5)CC4)cc3F)ccnc2cc1OCCCN1CCOCC1 [Foretinib] (partner 0.25 µM)
How it was run: as §1

| Cell Line | relative viability ([1]; first compound 0.25 µM) | relative viability ([1]; first compound 0.7906 µM) | relative viability ([1]; first compound 2.5 µM) | relative viability ([1]; first compound 7.906 µM) | relative viability ([1]; first compound 25 µM) | relative viability ([2]; first compound 0.04 µM) | relative viability ([2]; first compound 0.1265 µM) | relative viability ([2]; first compound 0.4 µM) | relative viability ([2]; first compound 1.265 µM) | relative viability ([2]; first compound 4 µM) | relative viability ([3]; first compound 0.25 µM) | relative viability ([3]; first compound 0.7906 µM) | relative viability ([3]; first compound 2.5 µM) | relative viability ([3]; first compound 7.906 µM) | relative viability ([3]; first compound 25 µM) | relative viability ([4]; first compound 0.25 µM) | relative viability ([4]; first compound 0.7906 µM) | relative viability ([4]; first compound 2.5 µM) | relative viability ([4]; first compound 7.906 µM) | relative viability ([4]; first compound 25 µM) |
| --- | --- | --- | --- | --- | --- | --- | --- | --- | --- | --- | --- | --- | --- | --- | --- | --- | --- | --- | --- | --- |
| NCI-H1355 | 1.01 | 0.961 | 1.01 | 1.1 | 1.11 | 1.22 | 1.27 | 1.02 | 0.72 | 0.621 | 1.07 | 1.18 | 1.02 | 1.04 | 1.1 | 0.67 | 1 | 0.967 | 0.971 | 0.918 |
| PC-14 | 0.373 | 0.39 | 0.339 | 0.382 | 0.49 | 1.04 | 0.857 | 0.905 | 0.776 | 0.729 | 0.873 | 0.893 | 0.887 | 0.945 | 1.07 | 0.968 | 0.833 | 1.09 | 0.929 | 1.02 |
| NCI-H1650 | 0.774 | 0.501 | 0.891 | 0.708 | 0.465 | 0.258 | 0.21 | 0.196 | 0.209 | 0.211 | 0.928 | 0.959 | 0.952 | 1.11 | 1.16 | 1.22 | 1.11 | 0.968 | 1.43 | 0.782 |
| IA-LM | 0.676 | 0.851 | 1.09 | 0.431 | 0.608 | 1.31 | 0.972 | 0.99 | 0.795 | 0.811 | 0.813 | 0.916 | 0.744 | 0.849 | 0.981 | 1.12 | 1.07 | 1.23 | 0.757 | 1.09 |
| NCI-H1703 | 1.11 | 1.23 | 1.29 | 0.768 | 0.826 | 0.369 | 0.283 | 0.178 | 0.187 | 0.178 | 0.603 | 0.519 | 0.757 | 0.523 | 0.493 | 0.309 | 0.31 | 0.368 | 0.413 | 0.3 |
| NCI-H727 | 0.995 | 0.714 | 0.96 | 0.672 | 0.851 | 1.44 | 0.983 | 0.787 | 0.97 | 0.88 | 1.1 | 0.98 | 0.799 | 1.04 | 0.659 | 0.9 | 0.889 | 1.18 | 1.14 | 1.12 |
| NCI-H23 | 1.17 |  | 1.13 | 0.936 | 0.742 | 1.44 | 1.16 |  | 0.856 | 0.512 | 0.403 |  | 0.469 | 0.451 | 0.337 | 0.8 |  | 1.13 | 0.891 | 0.773 |
| NCI-H596 | 1.1 | 1.07 | 1.04 | 1.1 | 0.983 | 0.985 | 0.905 | 0.924 | 0.8 | 0.746 | 0.953 | 0.891 | 1.08 | 1.07 | 1.09 | 0.826 | 0.953 | 1.03 | 0.916 | 1.08 |
| NCI-H460 | 1.05 | 1.01 | 1.06 | 0.836 | 0.631 | 1.09 | 1.03 | 0.716 | 0.5 | 0.26 | 0.887 | 1.15 | 0.935 | 0.875 | 0.915 | 1.08 | 1.04 | 0.999 | 1.04 | 1.08 |
